Laboratory results taken from patent US10538555B2, “Macrocyclic inhibitors of the PD-1/PD-L1 and CD80(B7-1)/PD-L1 protein/protein interactions” (BRISTOL-MYERS SQUIBB COMPANY, priority 2014, dated 2020).
Like-named read-outs stand apart in the source and are kept apart here. Where a SMILES comes first, the peptide text is derived from it. Bridges are numbered along the chain shown (N, C = ends). [ ]: non-standard residue; d: D form. ξ: configuration not given here. Trp(βS-Me) = C[C@@H](c1c[nH]c2ccccc12)[C@H](N)C(=O)O; Phe(3,4,5-F3) = N[C@@H](Cc1cc(F)c(F)c(F)c1)C(=O)O; Phe(3,4-F2) = N[C@@H](Cc1ccc(F)c(F)c1)C(=O)O; NMePhe(4-F) = CN[C@@H](Cc1ccc(F)cc1)C(=O)O; Phe(4-F) = N[C@@H](Cc1ccc(F)cc1)C(=O)O; d(cisHyp) = O=C(O)[C@H]1C[C@@H](O)CN1; Hyp = O=C(O)[C@@H]1C[C@@H](O)CN1; NMeF = CN[C@@H](Cc1ccccc1)C(=O)O; dNMeF = CN[C@H](Cc1ccccc1)C(=O)O; dHyp = O=C(O)[C@H]1C[C@H](O)CN1; NMehSer = CN[C@@H](CCO)C(=O)O; NMeNle = CCCC[C@H](NC)C(=O)O; dPip = O=C(O)[C@H]1CCCCN1; hSer = N[C@@H](CCO)C(=O)O; NMeA = CN[C@@H](C)C(=O)O; Orn = NCCC[C@H](N)C(=O)O; dNMeA = CN[C@H](C)C(=O)O; Dab = NCC[C@H](N)C(=O)O; Dap = NC[C@H](N)C(=O)O; ξC = NC(CS)C(=O)O; Sar = CNCC(=O)O

Molecular target: T1, Human PD-L1/PD-1 (Homo sapiens, UniProt Q9NZQ7)
T1 construct: TVMV protease cleavage site (C); made in house; host or cells: HEK293T cells
Experiment: HTRF Human PD-L1/PD-1 binding assay (PD-1-Ig/PD-L1-His)
Settings: PD-L1-His 10 nM, PD-1-Ig 20 nM
Outline: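 Competition of macrocyclic peptides for PD-1/PD-L1 binding measured by HTRF in dPBS containing 0.1% BSA and 0.05% Tween-20. Compound and PD-L1-His (10 nM final) incubated 15 min before PD-1-Ig (20 nM final) and a further 15 min.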

[1] = class symbol, read-out: HTRF Human PD-L1/PD-1 Binding Assay IC50 Range

T1 sequence (Q9NZQ7 with tags, fused parts or gaps): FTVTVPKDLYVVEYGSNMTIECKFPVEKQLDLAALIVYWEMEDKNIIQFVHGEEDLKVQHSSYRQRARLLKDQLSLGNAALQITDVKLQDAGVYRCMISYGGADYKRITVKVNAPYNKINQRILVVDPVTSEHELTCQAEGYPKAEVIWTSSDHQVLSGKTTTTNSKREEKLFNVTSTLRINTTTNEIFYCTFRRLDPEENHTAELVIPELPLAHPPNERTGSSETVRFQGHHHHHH

Row | Compound | IC50 [1] [nM] | IC50 (read-out: HTRF Human PD-L1/PD-1 Binding Assay IC50) [nM]
1 | CCCC[C@H]1C(=O)N2CCC[C@@H]2C(=O)N[C@@H](CC(=O)O)C(=O)N[C@@H](C(C)C)C(=O)N(C)[C@@H](Cc2ccccc2)C(=O)N[C@@H](Cc2ccc(O)cc2)C(=O)N2C[C@@H](O)C[C@@H]2C(=O)N[C@@H](Cc2c[nH]c3ccccc23)C(=O)N[C@@H](Cc2ccc(O)cc2)C(=O)N[C@@H](CCCN)C(=O)N[C@H](C(=O)NCC(N)=O)CSCC(=O)N[C@@H](Cc2cc(F)c(F)c(F)c2)C(=O)N(C)[C@@H](Cc2ccccc2)C(=O)N1C [Example 9288] ({CH2CO}-[Phe(3,4,5-F3)][NMeF][NMeNle][dP]DV[NMeF]Y[dHyp]WY[Orn]CG-NH2; thioether N-13) | 1 to 9.9 | 
2 | CCCC[C@H]1C(=O)N(C)[C@@H](CCCC)C(=O)N[C@@H](CCC(=O)O)C(=O)N[C@H](C(=O)NCC(N)=O)CSCC(=O)N[C@@H](Cc2ccc(OC)cc2)C(=O)N(C)[C@@H](C)C(=O)N[C@@H](CCN)C(=O)N2CCC[C@H]2C(=O)N[C@@H](CN)C(=O)N[C@@H](CCC(=O)O)C(=O)N2C[C@H](O)C[C@H]2C(=O)N[C@@H](Cc2c[nH]c3ccccc23)C(=O)N[C@@H](CCN)C(=O)N[C@@H](Cc2c[nH]c3ccccc23)C(=O)N1C [Example 7112] ({CH2CO}-Y(Me)[NMeA][Dab]P[Dap]E[Hyp]W[Dab]W[NMeNle][NMeNle]ECG-NH2; thioether N-14) | 1 to 9.9 | 
3 | CCCC[C@H]1C(=O)N2C[C@H](O)C[C@@H]2C(=O)N[C@@H](CC(=O)O)C(=O)N[C@@H](C(C)C)C(=O)N(C)[C@H](Cc2ccccc2)C(=O)N[C@@H](CC(=O)O)C(=O)N2C[C@H](O)C[C@@H]2C(=O)N[C@@H](Cc2c[nH]c3ccccc23)C(=O)N[C@@H](Cc2ccc(O)cc2)C(=O)N[C@@H](CCCN)C(=O)N[C@H](C(=O)NCC(N)=O)CSCC(=O)N[C@@H](Cc2ccc(F)c(F)c2)C(=O)N(C)[C@@H](Cc2ccccc2)C(=O)N1C [Example 9301] ({CH2CO}-[Phe(3,4-F2)][NMeF][NMeNle][d(cisHyp)]DV[dNMeF]D[d(cisHyp)]WY[Orn]CG-NH2; thioether N-13) | 1 to 9.9 | 
4 | CCCC[C@H]1C(=O)N(C)[C@@H](CCCC)C(=O)N[C@@H](CCCNC(=N)N)C(=O)NC(C(=O)NCC(N)=O)CSCC(=O)N[C@@H](Cc2ccc(O)cc2)C(=O)N(C)[C@@H](C)C(=O)N[C@@H](CC(N)=O)C(=O)N2CCC[C@H]2C(=O)N[C@@H](CO)C(=O)N[C@@H](CCO)C(=O)N2CCC[C@H]2C(=O)N[C@@H](Cc2c[nH]c3ccccc23)C(=O)N[C@@H](CO)C(=O)N[C@@H](Cc2c[nH]c3ccccc23)C(=O)N1C (stereo partly drawn) [Example 10036] ({CH2CO}-Y[NMeA]NPS[hSer]PWSW[NMeNle][NMeNle]R[ξC]G-NH2; thioether N-14) | 1 to 9.9 | 
5 | CCCC[C@H]1C(=O)N[C@@H](CO)C(=O)N[C@H](C(=O)NCC(N)=O)CSCC(=O)N[C@@H](Cc2ccc(O)cc2)C(=O)N(C)[C@@H](C)C(=O)N[C@@H](CC(N)=O)C(=O)N2CCC[C@H]2C(=O)N[C@@H](Cc2c[nH]cn2)C(=O)N[C@@H](CCC(N)=O)C(=O)N2C[C@H](O)C[C@H]2C(=O)N[C@@H](Cc2c[nH]c3ccccc23)C(=O)N[C@@H](CO)C(=O)N[C@@H](Cc2c[nH]c3ccccc23)C(=O)N(C)[C@@H](CCOC)C(=O)N1C [Example 10138] ({CH2CO}-Y[NMeA]NPHQ[Hyp]WSW[NMehSer](Me)[NMeNle]SCG-NH2; thioether N-14) |  | 180
6 | CCCC[C@H]1C(=O)N(C)CC(=O)N[C@@H](CC(=O)O)C(=O)N[C@@H](C(C)C)C(=O)N(C)[C@@H](Cc2ccccc2)C(=O)N[C@@H](Cc2c[nH]c3ccccc23)C(=O)N(C)CC(=O)N[C@@H](Cc2c[nH]c3ccccc23)C(=O)N[C@@H](Cc2ccc(O)cc2)C(=O)N[C@@H](CC(C)C)C(=O)N[C@H](C(=O)NCC(N)=O)CSCC(=O)N[C@@H](Cc2ccccc2)C(=O)N(C)[C@@H](Cc2ccccc2)C(=O)N1C [Example 3231] ({CH2CO}-F[NMeF][NMeNle][Sar]DV[NMeF]W[Sar]WYLCG-NH2; thioether N-13) | 1 to 9.9 | 
7 | CCCC[C@H]1C(=O)N(C)[C@@H](CCCC)C(=O)N[C@@H](CCCNC(=N)N)C(=O)N[C@H](C(=O)NCC(N)=O)CSCC(=O)N[C@@H](Cc2ccc(F)c(F)c2)C(=O)N(C)[C@@H](C)C(=O)N[C@@H](CC(N)=O)C(=O)N2CCC[C@H]2C(=O)N[C@@H](CN)C(=O)N[C@@H](CC(C)C)C(=O)N2C[C@H](O)C[C@H]2C(=O)N[C@@H](Cc2c[nH]c3ccccc23)C(=O)N[C@@H](CO)C(=O)N[C@@H](Cc2c[nH]c3ccccc23)C(=O)N1C [Example 7068] ({CH2CO}-[Phe(3,4-F2)][NMeA]NP[Dap]L[Hyp]WSW[NMeNle][NMeNle]RCG-NH2; thioether N-14) | 10 to 99.9 | 
8 | CCCC[C@H]1C(=O)N(C)[C@@H](CCCC)C(=O)N[C@@H](CCC(=O)O)C(=O)N[C@H](C(=O)NCC(N)=O)CSCC(=O)N[C@@H](Cc2ccc(O)cc2)C(=O)N(C)[C@@H](C)C(=O)N[C@@H](CC(=O)O)C(=O)N2CCC[C@H]2C(=O)N[C@@H](CO)C(=O)N[C@@H](CC(C)C)C(=O)N2C[C@H](O)C[C@H]2C(=O)N[C@@H](Cc2c[nH]c3ccccc23)C(=O)N[C@@H](CCC(=O)O)C(=O)N[C@@H](Cc2c[nH]c3ccccc23)C(=O)N1C [Example 5254] ({CH2CO}-Y[NMeA]DPSL[Hyp]WEW[NMeNle][NMeNle]ECG-NH2; thioether N-14) | 10 to 99.9 | 
9 | CCCC[C@H]1C(=O)N2CCC[C@@H]2C(=O)N[C@@H](CC(=O)O)C(=O)N[C@@H](C(C)C)C(=O)N(C)[C@@H](Cc2ccccc2)C(=O)N[C@@H](CCCN)C(=O)N2CCC[C@@H]2C(=O)N[C@@H](Cc2c[nH]c3ccccc23)C(=O)N[C@@H](Cc2ccc(O)cc2)C(=O)N[C@@H](CC(C)C)C(=O)N[C@H](C(=O)NCC(N)=O)CSCC(=O)N[C@@H](Cc2ccc(F)cc2)C(=O)N(C)[C@@H](Cc2ccccc2)C(=O)N1C [Example 10102] ({CH2CO}-[Phe(4-F)][NMeF][NMeNle][dP]DV[NMeF][Orn][dP]WYLCG-NH2; thioether N-13) | 1 to 9.9 | 
10 | CC(C)C[C@@H]1NC(=O)[C@H](Cc2ccc(O)cc2)NC(=O)[C@H](Cc2c[nH]c3ccccc23)NC(=O)[C@@H](C)N(C)C(=O)[C@H](Cc2ccc(O)cc2)NC(=O)[C@H](Cc2ccccc2)N(C)C(=O)[C@H](C(C)C)NC(=O)[C@H](CCC(N)=O)NC(=O)[C@@H](C)N(C)C(=O)[C@H](C)N(C)C(=O)[C@H](Cc2ccccc2)N(C)C(=O)[C@H](Cc2cc(F)c(F)c(F)c2)NC(=O)CSC[C@@H](C(=O)NCC(N)=O)NC1=O [Example 9191] ({CH2CO}-[Phe(3,4,5-F3)][NMeF][NMeA][dNMeA]QV[NMeF]Y[dNMeA]WYLCG-NH2; thioether N-13) | 10 to 99.9 | 
11 | CCCC[C@H]1C(=O)N(C)[C@@H](CCCC)C(=O)N[C@@H](C)C(=O)N[C@H](C(=O)NCC(N)=O)CSCC(=O)N[C@@H](Cc2ccc(O)cc2)C(=O)N(C)[C@@H](C)C(=O)N[C@@H](CC(N)=O)C(=O)N2CCC[C@H]2C(=O)N[C@@H](Cc2cnc[nH]2)C(=O)N[C@@H](CCC(N)=O)C(=O)N2CCNC[C@H]2C(=O)N[C@@H](Cc2c[nH]c3ccccc23)C(=O)N[C@@H](CO)C(=O)N[C@@H](Cc2c[nH]c3ccccc23)C(=O)N1C [Example 1278] | 10 to 99.9 | 
12 | CCCC[C@H]1C(=O)N(C)[C@@H](CCCC)C(=O)N[C@@H](CCCNC(=N)N)C(=O)N[C@H](C(=O)NCC(N)=O)CSCC(=O)N[C@@H](Cc2ccc(O)cc2)C(=O)N(C)[C@@H](C)C(=O)N[C@@H](CC(N)=O)C(=O)N2CCC[C@H]2C(=O)N[C@@H](CC(N)=O)C(=O)N[C@@H](CC(C)C)C(=O)N2C[C@H](O)C[C@H]2C(=O)N[C@@H]([C@@H](C)c2c[nH]c3ccccc23)C(=O)N[C@@H](CO)C(=O)N[C@@H](Cc2c[nH]c3ccccc23)C(=O)N1C [Example 10534] ({CH2CO}-Y[NMeA]NPNL[Hyp][Trp(βS-Me)]SW[NMeNle][NMeNle]RCG-NH2; thioether N-14) | 1 to 9.9 | 
13 | CCCC[C@H]1C(=O)N2C[C@H](O)C[C@@H]2C(=O)N[C@@H](CC(=O)O)C(=O)N[C@@H](C(C)C)C(=O)N(C)[C@@H](Cc2ccccc2)C(=O)N[C@@H](Cc2ccc(O)cc2)C(=O)N2CCC[C@@H]2C(=O)N[C@@H](Cc2c[nH]c3ccccc23)C(=O)N[C@@H](Cc2ccc(O)cc2)C(=O)N[C@@H](CCOC)C(=O)N[C@H](C(=O)NCC(N)=O)CSCC(=O)N[C@@H](Cc2cc(F)c(F)c(F)c2)C(=O)N(C)[C@@H](Cc2ccccc2)C(=O)N1C [Example 10186] ({CH2CO}-[Phe(3,4,5-F3)][NMeF][NMeNle][d(cisHyp)]DV[NMeF]Y[dP]WY[hSer](Me)CG-NH2; thioether N-13) | 10 to 99.9 | 
14 | CCCC[C@H]1C(=O)N2C[C@@H](O)C[C@@H]2C(=O)N[C@@H](CC(=O)O)C(=O)N[C@@H](C(C)C)C(=O)N(C)[C@@H](Cc2ccccc2)C(=O)N[C@@H](CCC(=O)O)C(=O)N2CCCC[C@@H]2C(=O)N[C@@H](Cc2c[nH]c3ccccc23)C(=O)N[C@@H](Cc2ccc(O)cc2)C(=O)N[C@@H](CCN)C(=O)N[C@H](C(=O)NCC(N)=O)CSCC(=O)N[C@@H](Cc2cc(F)c(F)c(F)c2)C(=O)N(C)[C@@H](Cc2ccc(F)cc2)C(=O)N1C [Example 10566] ({CH2CO}-[Phe(3,4,5-F3)][NMePhe(4-F)][NMeNle][dHyp]DV[NMeF]E[dPip]WY[Dab]CG-NH2; thioether N-13) | 1 to 9.9 | 
15 | CCCC[C@H]1C(=O)N2CCC[C@@H]2C(=O)N[C@@H](CC(=O)O)C(=O)N[C@@H](C(C)C)C(=O)N(C)[C@@H](Cc2ccccc2)C(=O)N[C@@H](CC(=O)O)C(=O)N2CCCC[C@@H]2C(=O)N[C@@H](Cc2c[nH]c3ccccc23)C(=O)N[C@@H](Cc2ccc(O)cc2)C(=O)N[C@@H](CC(N)=O)C(=O)N[C@H](C(=O)NCC(N)=O)CSCC(=O)N[C@@H](Cc2cc(F)c(F)c(F)c2)C(=O)N(C)[C@@H](Cc2ccc(F)cc2)C(=O)N1C [Example 10574] ({CH2CO}-[Phe(3,4,5-F3)][NMePhe(4-F)][NMeNle][dP]DV[NMeF]D[dPip]WYNCG-NH2; thioether N-13) | 1 to 9.9 | 
